Reference: ChEMBL document CHEMBL3608211, “Exploration of Pharmacophore in Chrysosplenol C as Activator in Ventricular Myocyte Contraction” (ACS Med Chem Lett, 2015)
In brackets after ≈: the same amount, converted by molar mass. Activity calls are given as the source filed them. The calls are words filed in the database; no cut-off is given here.

Assays:
[1] = Positive inotropic effect in Sprague-Dawley rat ventricular myocytes assessed as change in ventricular cell contractility at 10 uM by video edge detector relative to control; assay type: functional, Ventricular myocyte
[2] = Positive inotropic effect in Sprague-Dawley rat ventricular myocytes assessed as change in ventricular cell contractility at 50 uM by video edge detector relative to control; assay type: functional, Ventricular myocyte
Gallus gallus = organism: Gallus gallus; assay: Activation of smooth myosin S1 ATPase in chicken gizzard at 10 uM in presence of actin thin filament complex
Bos taurus = organism: Bos taurus; assay: Activation of cardiac myosin S1 ATPase in bovine sarcomere at 10 uM by spectrophometric analysis in presence of actin thin filament complex relative to control
Oryctolagus cuniculus = organism: Oryctolagus cuniculus; assay: Activation of skeletal myosin S1 ATPase in rabbit psoas muscle at 10 uM in presence of actin thin filament complex; assay type: tissue-based
[3] = Solubility of the compound in DMSO/tyrode solution; assay type: physicochemical
[4] = Positive inotropic effect in Sprague-Dawley rat ventricular myocytes assessed as change in ventricular cell contractility at 1 uM by video edge detector relative to control; assay type: functional, Ventricular myocyte
[5] = Positive inotropic effect in Sprague-Dawley rat ventricular myocytes assessed as change in ventricular cell contractility at 400 nM by video edge detector relative to control; assay type: functional, Ventricular myocyte

| Activity (Gallus gallus) | Activity (Bos taurus) [%] | Activity (Oryctolagus cuniculus) | solubility [3] [µg/mL] | Structure (SMILES) | Activity [1] [%] | Activity [2] [%] | Activity [4] [%] | Activity [5] [%] |
| --- | --- | --- | --- | --- | --- | --- | --- | --- |
|  |  |  |  | COc1cc(-c2oc3ccccc3c(=O)c2OC)ccc1O | 30.5 | 44.9 |  |  |
| inactive | 30.9 | inactive |  | COc1ccc2c(=O)c(OC)c(-c3ccc(O)cc3)oc2c1 | 42.1 | 38.6 |  |  |
|  |  |  |  | COc1ccc2c(=O)c(OC)c(-c3ccc(Cl)cc3)oc2c1 | 0 | 0 |  |  |
| inactive | 28.9 | inactive |  | COc1c(-c2ccc(O)cc2)oc2cc(Cl)ccc2c1=O | 49.6 | 62.1 |  |  |
|  |  |  |  | COc1cc(-c2oc3ccc(O)cc3c(=O)c2OC)ccc1O | 3.9 | 9.3 |  |  |
|  | 0 |  |  | COc1cc(-c2oc3cccc(O)c3c(=O)c2OC)ccc1O | 4.2 | 12.3 |  |  |
|  |  |  |  | COc1cccc(-c2oc3cc(Cl)ccc3c(=O)c2OC)c1 | 16.6 | 23.6 |  |  |
|  |  |  |  | COc1cc(-c2oc3ccccc3c(=O)c2O)ccc1O | 10.5 | 10.3 |  |  |
| inactive | 36.4 | inactive |  | COc1cc(-c2oc3cc(Cl)ccc3c(=O)c2OC)ccc1O | 43.9 | 41.8 |  |  |
|  |  |  |  | COc1cc(-c2cc(=O)c3ccc(Cl)cc3o2)ccc1O | 0 | 0 |  |  |
|  | 0 |  |  | COc1ccc2c(=O)c(O)c(-c3ccc(O)c(OC)c3)oc2c1 | 8.17 | 3.98 |  |  |
| inactive | 28.1 | inactive | 14.1 (≈ 39.1 µM) | COc1cc(-c2oc3cc(OC)c(O)c(O)c3c(=O)c2OC)ccc1O [CHRYSOSPLENOL C] | 16.6 | 53 |  |  |
|  |  |  |  | COc1cc(-c2oc3ccc(O)cc3c(=O)c2O)ccc1O | 0 | 0 |  |  |
|  |  |  |  | COc1cc(-c2oc3cc(Cl)ccc3c(=O)c2O)ccc1O | 23.5 | 57.3 |  |  |
| inactive | 38.7 | inactive |  | COc1c(-c2cccc(O)c2)oc2cc(Cl)ccc2c1=O | 54.8 | 53.9 |  |  |
|  |  |  |  | COc1ccc(-c2oc3cc(OC)c(OC)c(O)c3c(=O)c2OC)cc1OC [ARTEMETIN] | 8.7 | 21.6 |  |  |
|  |  |  |  | COc1c(-c2ccc(Cl)cc2)oc2cc(Cl)ccc2c1=O | 0 | 0 |  |  |
|  |  |  |  | COc1cc(-c2oc3cccc(O)c3c(=O)c2O)ccc1O | 0 | 0 |  |  |
| inactive | 33.7 | inactive | 17.1 (≈ 52 µM) | COc1ccc2c(=O)c(OC)c(-c3ccc(O)c(OC)c3)oc2c1 | 60.7 | 45.3 |  |  |
|  |  |  |  | COc1cccc(-c2oc3cc(Cl)ccc3c(=O)c2O)c1 | 0 | 0 |  |  |
|  |  |  |  | COc1cc(/C=C/C(=O)c2ccc(Cl)cc2O)ccc1O | 0 | 0 |  |  |
|  |  |  |  | O=c1c(O)c(-c2ccc(O)cc2)oc2cc(Cl)ccc12 | 0 | 11 |  |  |
|  |  |  |  | COc1ccc2c(=O)c(O)c(-c3ccc(O)cc3)oc2c1 | 8.87 | 23.1 |  |  |
|  | 80.4 |  |  | COC(=O)N1CCN(Cc2cccc(NC(=O)Nc3ccc(C)nc3)c2F)CC1 [OMECAMTIV MECARBIL] |  |  | 33.8 | 59.3 |
